Laboratory results reported in patent US5171838A, “Leu3a binding peptides” (Kureha Kagaku Kogyo Kabushiki Kaisha, priority 1990, dated 1992).
Entries after “also recorded” stand apart in the source; their conditions may differ. Where a SMILES comes first, the peptide text is derived from it. Where no end group is shown, it is not given here. [ ]: non-standard residue; d: D form.

Target: Leu3a binding to CD4
Assay: Leu3a competitive immunoassay (inhibition of biotinylated Leu3a binding to immobilized CD4 membrane fraction)
Design: species or system human
Conditions: for IC50 μg/well: D-amino acid-substituted CD4 (49-63); for IC50 μg/well / IC50 /µg/well: peptide amount per well inhibiting Leu3a binding by 50%; for inhibition of Leu3a binding to CD4 (in words): CD4 from MOLT4 cells; for IC50 /µg/well: CD4 fragment peptides, membrane fraction of MOLT4 or CCRF-CEM cells as CD4 source, unit of the source corrected
Description: Then, aliquots of solutions containing labeled Leu3a and the peptide to be tested are added. […] After a suitable period of incubation, the solid matrix is washed to remove unbound components and the labeled Leu3a bound is quantitated. In general, any of a number of conventionally labeled Leu3a preparations may be used, including radioactively labeled or enzyme-labeled Leu3a. However, a biotinylated Leu3a used in conjunction with an appropriate secondary reagent such as a complex of avidin-biotin-horseradish peroxidase is preferred. This secondary reagent specifically binds to the biotinylated Leu3a. A chromogenic substrate is added to the complex, enabling one to measure the amount of Leu3a bound as a function of absorbance.
Two million cells, suspended in 2 ml of 40 mM HEPES (4-(2-hydroxyethyl)-1-piperazine ethanesulfonic acid) buffer (pH 7.4) containing 1 mM EGTA (ethylene-bis-(oxyethylene-nitrilo)-tetraacetic acid), 1 mM PMSF (phenylmethylsulfonylfluoride), 1,000 KIU/ml aprotinin and 150 mM sodium chloride, were lysed by two (2) successive 15 second cycles of ultrasonication and centrifuged at 100×g for five (5) minutes. The supernatant was collected and centrifuged at 15,000×g for ten minutes. The precipitate was resuspended in 1 ml of 50 mM sodium bicarbonate buffer, ultrasonicated by three (3) successive 15 second cycles, and mixed with 1 ml of 50 mM sodium bicarbonate buffer to obtain the cellular membrane suspension. Then, 50 μl of the membrane suspension was added to each well of a 96 well microtiter plate. After overnight incubation at 4° C., the buffer was removed and the adsorbed membrane fraction was fixed by addition of 50 μl of 10 mM PBS (phosphate buffered saline) containing 0.2% glutaraldehyde. After three (3) minutes at room temperature, the glutaraldehyde buffer was removed and the plates were washed five times with PBS. Then, 350 μl of PBS containing 2% bovine serum albumin (BSA) was added to each well to block subsequently added proteins from binding non-specifically to the plastic. After blocking at room temperature for one (1) hour, the blocking buffer was removed and the plates were washed five times with 0.2% BSA solution in PBS (BPBS).
The following dilutions of each peptide in BPBS--were prepared: 10 μg/ml; 20 μg/ml; 40 μg/ml; 100 μg/ml; 200 μg/ml, 400 μg/ml; 1 mg/ml and 2 mg/ml. A 50 μl aliquot of each dilution of a selected peptide was added to a well of a microtiter plate, together with 25 μl of a solution containing 600 ng/ml biotin-conjugated Leu3a (Becton Dickinson Immunocytometry Systems) in BPBS so that each well contained either 0.5, 1, 2, 5, 10, 20, 50 or 100 μg of peptide in a total volume of 75 μl. After overnight incubation at 4° C., the reaction mixture was removed and the plates were washed eight times with BPBS containing 0.05% Tween 20.
A solution containing a complex of avidin DH (reagent A) and biotinylated horseradish peroxidase H (reagent B) was prepared by adding 90 μl of reagent A and 90 μl of reagent B (ABC Kit:Vector Laboratories, Inc.) to 5 ml of BPBS containing 0.05% Tween 20.
Then, 50 μl of the enzyme complex solution was added to each well, and the plates were incubated at room temperature for four (4) hours. The reaction buffer was removed and the plates were washed eight times with 20 mM imidazole buffered saline containing 0.02% Tween 20. Equal volumes of substrate solution A (ABTS; 2,2'-azino-di[3-ethyl-benzthiazoline sulfonate]) and substrate solution B (hydrogen peroxide) (Hybri-Clonal™ EIA Screening Kit: Kirkegaard & Perry Laboratories, Inc.) were mixed, and 100 μl of the substrate solution mixture was added to each well. After incubation at room temperature for one (1) hour, absorbance at 405 nm was measured by microplate reader model MPR-A4 (Tosoh Co., Ltd.).
Leu3a binding, as measured by absorbance, was calculated and plotted against peptide concentration to obtain a competitive inhibition curve.

Molecule | IC50 μg/well | inhibition of Leu3a binding to CD4 (in words) | IC50 /µg/well
CC(C)C[C@H](NC(=O)[C@H](CO)NC(=O)[C@H](CCCNC(=N)N)NC(=O)[C@@H](CCCNC(=N)N)NC(=O)[C@H](CO)NC(=O)[C@H](CC(=O)O)NC(=O)[C@@H](C)NC(=O)[C@H](CCCNC(=N)N)NC(=O)[C@H](CC(=O)O)NC(=O)[C@H](CC(N)=O)NC(=O)[C@H](CC(C)C)NC(=O)[C@H](CCCCN)NC(=O)[C@@H](N)CO)C(=O)N[C@@H](Cc1c[nH]c2ccccc12)C(=O)N[C@@H](CC(=O)O)C(=O)O [[D-Ala^55,D-Arg^58]-CD4(49-63)] (H-SKLNDR[dA]DS[dR]RSLWD-OH) | 36 μg/well | – | –
CC(C)C[C@H](NC(=O)[C@H](CCCCN)NC(=O)[C@@H](N)CO)C(=O)N[C@@H](CC(N)=O)C(=O)N[C@@H](CC(=O)O)C(=O)N[C@@H](CCCNC(=N)N)C(=O)N[C@H](C)C(=O)N[C@@H](CC(=O)O)C(=O)N[C@@H](CO)C(=O)N[C@@H](CCCNC(=N)N)C(=O)N[C@H](CCCNC(=N)N)C(=O)N[C@@H](CO)C(=O)N[C@@H](CC(C)C)C(=O)N[C@@H](Cc1c[nH]c2ccccc12)C(=O)N[C@@H](CC(=O)O)C(=O)O [[D-Ala^55,D-Arg^59]-CD4(49-63)] (H-SKLNDR[dA]DSR[dR]SLWD-OH) | 23 μg/well | – | –
CC(C)C[C@H](NC(=O)[C@H](CO)NC(=O)[C@H](CCCNC(=N)N)NC(=O)[C@H](CCCNC(=N)N)NC(=O)[C@@H](CO)NC(=O)[C@H](CC(=O)O)NC(=O)[C@@H](C)NC(=O)[C@H](CCCNC(=N)N)NC(=O)[C@H](CC(=O)O)NC(=O)[C@H](CC(N)=O)NC(=O)[C@H](CC(C)C)NC(=O)[C@H](CCCCN)NC(=O)[C@@H](N)CO)C(=O)N[C@@H](Cc1c[nH]c2ccccc12)C(=O)N[C@@H](CC(=O)O)C(=O)O [[D-Ala^55,D-Ser^57]-CD4(49-63)] (H-SKLNDR[dA]D[dS]RRSLWD-OH) | 10 μg/well | – | –
CC(C)C[C@H](NC(=O)[C@H](CO)NC(=O)[C@H](CCCNC(=N)N)NC(=O)[C@H](CCCNC(=N)N)NC(=O)[C@H](CO)NC(=O)[C@H](CC(=O)O)NC(=O)[C@@H](C)NC(=O)[C@H](CCCNC(=N)N)NC(=O)[C@H](CC(=O)O)NC(=O)[C@H](CC(N)=O)NC(=O)[C@H](CC(C)C)NC(=O)[C@H](CCCCN)NC(=O)[C@@H](N)CO)C(=O)N[C@@H](Cc1c[nH]c2ccccc12)C(=O)N[C@@H](CC(=O)O)C(=O)O [[D-Ala^55]-CD4(49-63)] (H-SKLNDR[dA]DSRRSLWD-OH) | 32 μg/well | – | –
CC(C)C[C@H](NC(=O)[C@H](CO)NC(=O)[C@H](CCCNC(=N)N)NC(=O)[C@H](CCCNC(=N)N)NC(=O)[C@H](CO)NC(=O)[C@H](CC(=O)O)NC(=O)[C@@H](C)NC(=O)[C@H](CCCNC(=N)N)NC(=O)[C@H](CC(=O)O)NC(=O)[C@@H](CC(N)=O)NC(=O)[C@H](CC(C)C)NC(=O)[C@H](CCCCN)NC(=O)[C@@H](N)CO)C(=O)N[C@@H](Cc1c[nH]c2ccccc12)C(=O)N[C@@H](CC(=O)O)C(=O)O [[D-Asn^52,D-Ala^55]-CD4(49-63)] (H-SKL[dN]DR[dA]DSRRSLWD-OH) | 60 μg/well | – | –
CC(C)C[C@H](NC(=O)[C@H](CO)NC(=O)[C@H](CCCNC(=N)N)NC(=O)[C@H](CCCNC(=N)N)NC(=O)[C@H](CO)NC(=O)[C@@H](CC(=O)O)NC(=O)[C@H](C)NC(=O)[C@H](CCCNC(=N)N)NC(=O)[C@H](CC(=O)O)NC(=O)[C@H](CC(N)=O)NC(=O)[C@H](CC(C)C)NC(=O)[C@H](CCCCN)NC(=O)[C@@H](N)CO)C(=O)N[C@@H](Cc1c[nH]c2ccccc12)C(=O)N[C@@H](CC(=O)O)C(=O)O [[D-Asp^56]-CD4(49-63)] (H-SKLNDRA[dD]SRRSLWD-OH) | 56 μg/well | – | –
CC(C)C[C@H](NC(=O)[C@H](CO)NC(=O)[C@@H](CCCNC(=N)N)NC(=O)[C@H](CCCNC(=N)N)NC(=O)[C@H](CO)NC(=O)[C@H](CC(=O)O)NC(=O)[C@@H](C)NC(=O)[C@H](CCCNC(=N)N)NC(=O)[C@H](CC(=O)O)NC(=O)[C@H](CC(N)=O)NC(=O)[C@H](CC(C)C)NC(=O)[C@@H](CCCCN)NC(=O)[C@@H](N)CO)C(=O)N[C@@H](Cc1c[nH]c2ccccc12)C(=O)N[C@@H](CC(=O)O)C(=O)O [[D-Lys^50,D-Ala^55,D-Arg^59]-CD4(49-63)] (H-S[dK]LNDR[dA]DSR[dR]SLWD-OH) | 25 μg/well | exhibited inhibitory activity | –
CC(C)C[C@H](NC(=O)[C@@H](CCCCN)NC(=O)[C@@H](N)CO)C(=O)N[C@@H](CC(N)=O)C(=O)N[C@@H](CC(=O)O)C(=O)N[C@@H](CCCNC(=N)N)C(=O)N[C@H](C)C(=O)N[C@@H](CC(=O)O)C(=O)N[C@@H](CO)C(=O)N[C@@H](CCCNC(=N)N)C(=O)N[C@@H](CCCNC(=N)N)C(=O)N[C@@H](CO)C(=O)N[C@H](CC(C)C)C(=O)N[C@@H](Cc1c[nH]c2ccccc12)C(=O)N[C@@H](CC(=O)O)C(=O)O [[D-Lys^50,D-Ala^55,D-Leu^61]-CD4(49-63)] (H-S[dK]LNDR[dA]DSRRS[dL]WD-OH) | 22 μg/well | – | –
CC(C)C[C@H](NC(=O)[C@H](CO)NC(=O)[C@H](CCCNC(=N)N)NC(=O)[C@H](CCCNC(=N)N)NC(=O)[C@H](CO)NC(=O)[C@H](CC(=O)O)NC(=O)[C@@H](C)NC(=O)[C@H](CCCNC(=N)N)NC(=O)[C@H](CC(=O)O)NC(=O)[C@H](CC(N)=O)NC(=O)[C@H](CC(C)C)NC(=O)[C@@H](CCCCN)NC(=O)[C@@H](N)CO)C(=O)N[C@@H](Cc1c[nH]c2ccccc12)C(=O)N[C@@H](CC(=O)O)C(=O)O [[D-Lys^50,D-Ala^55]-CD4(49-63)] (H-S[dK]LNDR[dA]DSRRSLWD-OH) | 36 μg/well | – | –
KLNDRADSRRSLWD [CD4 (50-63)] | – | very weak inhibiting activity | > 500 µg/well
KNSNQIKILGNQGSFLTKG [CD4 (29-47)] | – | – | 500 µg/well
SKLNDRADSRRSLW [CD4 (49-62)] | – | very weak inhibiting activity | > 500 µg/well
SKLNDRADSRRSLWD [CD4 (49-63), ser-lys-leu-asn-asp-arg-ala-asp-ser-arg-arg-ser-leu-trp-asp] | – | strongly inhibited; also recorded: exceptionally strong inhibitory activity | 10 µg/well
